Measurements: ChEMBL document CHEMBL1147684, “Nitrogen-bridged substituted 8-arylquinolines as potent PDE IV inhibitors” (Bioorg Med Chem Lett, 2006)

Assays:
[1] = target: 3',5'-cyclic-AMP phosphodiesterase 4A (Homo sapiens, UniProt P27815); experiment: Inhibition of human GST-PDE4A
[2] = target: T1, 3',5'-cyclic-AMP phosphodiesterase 4B (Homo sapiens, UniProt Q07343); experiment: Ability to block TNFalpha release through inhibition of PDE4 in LPS-stimulated human whole blood; format: functional, tissue-based
[3] = target: T1, 3',5'-cyclic-AMP phosphodiesterase 4B; experiment: Inhibition of human GST-PDE4B
[4] = target: 3',5'-cyclic-AMP phosphodiesterase 4C (Homo sapiens, UniProt Q08493); experiment: Inhibition of human GST-PDE4C
[5] = target: 3',5'-cyclic-AMP phosphodiesterase 4D (Homo sapiens, UniProt Q08499); experiment: Inhibition of human GST-PDE4D
[6] = Half life in iv dosed rat; format: ADME, organism-based; details: in vivo
[7] = Half life in iv dosed squirrel monkey; format: ADME, organism-based, Saimiri sciureus; details: in vivo
[8] = Oral bioavailability in rat; format: ADME, organism-based; details: in vivo
[9] = Oral bioavailability in squirrel monkey; format: ADME, organism-based, Saimiri sciureus; details: in vivo
[10] = Cmax in rat; format: ADME, organism-based; details: in vivo
[11] = Cmax in squirrel monkey; format: ADME, organism-based, Saimiri sciureus; details: in vivo
Cavia porcellus [12] = experiment: Inhibition of ovalbumin-induced bronchoconstriction in guinea pig at 30 ug/kg, ip; format: functional
Cavia porcellus [13] = experiment: Inhibition of ovalbumin-induced bronchoconstriction in guinea pig at 1 mg/kg, ip; format: functional; details: route intraperitoneal

3',5'-cyclic-AMP phosphodiesterase 4C, sequence (Q08493 whole entry): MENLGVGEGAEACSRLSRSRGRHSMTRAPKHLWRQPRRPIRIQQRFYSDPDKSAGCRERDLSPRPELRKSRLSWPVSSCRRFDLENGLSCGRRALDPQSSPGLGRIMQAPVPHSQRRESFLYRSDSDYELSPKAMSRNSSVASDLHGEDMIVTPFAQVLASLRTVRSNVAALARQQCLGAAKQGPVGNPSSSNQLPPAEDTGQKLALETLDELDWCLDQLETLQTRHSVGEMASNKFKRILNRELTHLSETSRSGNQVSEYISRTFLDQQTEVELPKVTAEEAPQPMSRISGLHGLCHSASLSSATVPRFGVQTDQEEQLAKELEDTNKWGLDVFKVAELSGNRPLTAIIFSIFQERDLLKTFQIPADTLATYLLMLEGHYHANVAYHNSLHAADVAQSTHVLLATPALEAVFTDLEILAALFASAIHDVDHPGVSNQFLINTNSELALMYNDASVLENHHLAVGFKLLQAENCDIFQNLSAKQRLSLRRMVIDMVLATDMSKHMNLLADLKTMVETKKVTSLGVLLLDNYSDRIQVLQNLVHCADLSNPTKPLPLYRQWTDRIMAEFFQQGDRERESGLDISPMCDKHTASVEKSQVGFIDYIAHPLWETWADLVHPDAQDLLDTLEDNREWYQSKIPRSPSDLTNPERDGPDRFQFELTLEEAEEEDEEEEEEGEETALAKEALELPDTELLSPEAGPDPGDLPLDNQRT
T1 sequence (Q07343 whole entry): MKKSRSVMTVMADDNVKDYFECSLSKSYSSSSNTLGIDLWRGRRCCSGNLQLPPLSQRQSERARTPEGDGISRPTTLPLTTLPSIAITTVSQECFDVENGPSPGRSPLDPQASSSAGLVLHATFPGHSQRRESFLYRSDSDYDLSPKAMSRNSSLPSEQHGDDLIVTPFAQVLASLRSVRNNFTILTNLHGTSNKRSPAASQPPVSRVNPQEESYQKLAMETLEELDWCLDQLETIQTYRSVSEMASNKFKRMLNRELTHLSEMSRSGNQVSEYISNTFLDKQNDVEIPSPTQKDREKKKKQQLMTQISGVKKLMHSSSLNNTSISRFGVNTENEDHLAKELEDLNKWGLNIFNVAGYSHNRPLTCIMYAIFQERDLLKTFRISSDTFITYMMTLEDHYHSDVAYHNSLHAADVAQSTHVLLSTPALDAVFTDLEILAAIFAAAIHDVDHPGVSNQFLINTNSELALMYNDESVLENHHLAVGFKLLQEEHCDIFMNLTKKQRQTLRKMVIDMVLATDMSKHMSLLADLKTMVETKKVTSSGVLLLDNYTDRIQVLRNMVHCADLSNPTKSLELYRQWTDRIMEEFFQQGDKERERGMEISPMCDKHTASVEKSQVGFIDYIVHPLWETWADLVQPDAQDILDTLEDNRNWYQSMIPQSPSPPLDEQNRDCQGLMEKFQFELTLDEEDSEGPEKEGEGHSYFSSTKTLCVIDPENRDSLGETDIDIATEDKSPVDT
3',5'-cyclic-AMP phosphodiesterase 4D, sequence (Q08499 whole entry): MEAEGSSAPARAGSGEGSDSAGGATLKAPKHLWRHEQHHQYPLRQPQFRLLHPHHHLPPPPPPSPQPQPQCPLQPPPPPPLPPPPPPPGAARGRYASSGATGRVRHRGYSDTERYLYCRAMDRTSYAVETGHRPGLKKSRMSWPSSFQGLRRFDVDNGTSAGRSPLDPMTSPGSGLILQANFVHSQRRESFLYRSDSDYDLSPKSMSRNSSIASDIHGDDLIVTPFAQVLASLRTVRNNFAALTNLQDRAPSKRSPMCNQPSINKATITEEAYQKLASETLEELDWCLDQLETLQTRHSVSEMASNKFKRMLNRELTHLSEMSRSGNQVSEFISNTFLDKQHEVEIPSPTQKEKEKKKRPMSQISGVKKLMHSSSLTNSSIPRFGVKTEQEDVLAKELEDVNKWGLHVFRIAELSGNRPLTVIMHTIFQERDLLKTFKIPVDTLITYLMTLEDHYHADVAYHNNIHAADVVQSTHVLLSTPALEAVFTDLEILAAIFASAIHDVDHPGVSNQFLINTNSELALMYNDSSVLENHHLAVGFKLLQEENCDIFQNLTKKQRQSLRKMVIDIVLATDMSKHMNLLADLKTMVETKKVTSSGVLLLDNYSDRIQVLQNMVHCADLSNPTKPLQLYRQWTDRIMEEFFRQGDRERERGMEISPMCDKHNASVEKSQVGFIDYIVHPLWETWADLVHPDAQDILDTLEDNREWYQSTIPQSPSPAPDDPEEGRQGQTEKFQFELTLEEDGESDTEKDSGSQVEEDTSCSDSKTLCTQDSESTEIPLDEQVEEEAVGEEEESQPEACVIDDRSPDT
3',5'-cyclic-AMP phosphodiesterase 4A, sequence (P27815 whole entry): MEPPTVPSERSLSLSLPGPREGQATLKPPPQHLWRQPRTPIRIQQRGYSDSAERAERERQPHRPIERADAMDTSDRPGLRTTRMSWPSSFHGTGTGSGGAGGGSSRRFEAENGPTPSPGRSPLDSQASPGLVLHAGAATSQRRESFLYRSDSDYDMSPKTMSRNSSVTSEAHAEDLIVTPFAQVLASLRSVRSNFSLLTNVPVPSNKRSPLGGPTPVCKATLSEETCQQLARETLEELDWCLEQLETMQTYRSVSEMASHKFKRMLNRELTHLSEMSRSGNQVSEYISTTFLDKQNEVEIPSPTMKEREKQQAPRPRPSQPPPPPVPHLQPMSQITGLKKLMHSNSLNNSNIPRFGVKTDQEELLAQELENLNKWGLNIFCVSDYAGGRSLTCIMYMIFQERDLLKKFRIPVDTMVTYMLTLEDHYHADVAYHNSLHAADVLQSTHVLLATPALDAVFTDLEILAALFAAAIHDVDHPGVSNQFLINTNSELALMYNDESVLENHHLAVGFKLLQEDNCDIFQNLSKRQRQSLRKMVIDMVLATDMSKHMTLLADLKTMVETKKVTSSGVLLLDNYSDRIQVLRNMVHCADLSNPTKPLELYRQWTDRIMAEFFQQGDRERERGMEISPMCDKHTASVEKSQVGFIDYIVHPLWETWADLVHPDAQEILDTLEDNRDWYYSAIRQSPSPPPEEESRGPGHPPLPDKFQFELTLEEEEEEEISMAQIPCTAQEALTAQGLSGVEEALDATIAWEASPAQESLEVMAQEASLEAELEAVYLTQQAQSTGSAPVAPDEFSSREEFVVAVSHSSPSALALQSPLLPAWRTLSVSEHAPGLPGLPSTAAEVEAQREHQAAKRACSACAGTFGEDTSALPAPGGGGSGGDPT

| Structure (SMILES) | IC50 [1] [nM] | IC50 [2] [nM] | IC50 [3] [nM] | IC50 [4] [nM] | IC50 [5] [nM] | half-life [6] [h] | half-life [7] [h] | bioavailability [8] [%] | bioavailability [9] [%] | Cmax [10] [nM] | Cmax [11] [nM] | inhibition in vivo at 0.03 mg/kg (Cavia porcellus [12]) [%] | inhibition in vivo at 1 mg/kg (Cavia porcellus [13]) [%] |
| --- | --- | --- | --- | --- | --- | --- | --- | --- | --- | --- | --- | --- | --- |
| CC(=O)N(c1ccc(S(C)(=O)=O)cc1)C(C)c1cccc(-c2cc(C(C)(C)S(C)(=O)=O)cc3cccnc23)c1 (configuration not stated) | 10 | 2000 | 4.2 | 41 | 6.7 |  |  |  |  |  |  |  |  |
| CC(c1cccc(-c2cc(C(C)(C)S(C)(=O)=O)cc3cccnc23)c1)N(C(=O)c1cccnc1)c1ccc(S(C)(=O)=O)cc1 (configuration not stated) | 2.1 | 210 | 0.7 | 14 | 1.7 |  |  |  |  |  |  |  |  |
| CC(C)NC(=O)N(Cc1cc(-c2cc(C(C)(C)S(C)(=O)=O)cc3cccnc23)ccc1Cl)c1ccc(S(C)(=O)=O)cc1 | 15 | 4000 | 4.4 | 70 | 10 |  |  |  |  |  |  |  |  |
| CC(C)(c1cc(-c2cccc(C(=O)Nc3ccccc3)c2)c2ncccc2c1)S(C)(=O)=O | 16 | 7000 | 5.9 | 97 | 10 |  |  |  |  |  |  |  |  |
| CC(C)(c1cc(-c2cccc(C(=O)Nc3ccc(S(C)(=O)=O)cc3)c2)c2ncccc2c1)S(C)(=O)=O | 3.5 | 140 | 0.5 | 26 | 2.8 |  |  |  |  |  |  |  |  |
| CC(C)(c1cc(-c2cccc(C(N)=O)c2)c2ncccc2c1)S(C)(=O)=O | 78 |  | 40 | 490 | 74 |  |  |  |  |  |  |  |  |
| CC(C)(c1cc(-c2cccc(C(=O)Nc3ccncc3)c2)c2ncccc2c1)S(C)(=O)=O | 3.1 | 200 | 0.9 | 17 | 3 |  |  |  |  |  |  |  |  |
| CC(c1cccc(-c2cc(C(C)(C)S(C)(=O)=O)cc3cccnc23)c1)N(C(=O)c1ccc(F)cc1)c1ccc(S(C)(=O)=O)cc1 (racemic) | 2.3 | 560 | 0.6 | 12 | 1.8 | 2 | 7 | 67 | 98 | 2700 | 900 | 74 |  |
| CC(c1cccc(-c2cc(C(C)(C)S(C)(=O)=O)cc3cccnc23)c1)N(C(=O)c1ccc(F)cc1)c1ccc(S(C)(=O)=O)cc1 (single isomer, unassigned; enantiomer A) | 15 | 1400 | 5.8 | 51 | 7 |  |  |  |  |  |  |  |  |
| CC(c1cccc(-c2cc(C(C)(C)S(C)(=O)=O)cc3cccnc23)c1)N(C(=O)c1ccc(F)cc1)c1ccc(S(C)(=O)=O)cc1 (single isomer, unassigned; enantiomer B) | 1.8 | 250 | 0.5 | 7.5 | 0.7 |  |  |  |  |  |  |  |  |
| COc1ccc([C@H](Cc2ccncc2)c2ccccc2)cc1OC1CCCC1 [CDP840] |  |  |  |  |  |  |  |  |  |  |  |  | 55 |

The remaining compounds from weak to strong by IC50 [1], led by results:

| IC50 [1] [nM] | IC50 [2] [nM] | IC50 [3] [nM] | IC50 [4] [nM] | IC50 [5] [nM] | half-life [6] [h] | half-life [7] [h] | bioavailability [8] [%] | bioavailability [9] [%] | Cmax [10] [nM] | Cmax [11] [nM] | Structure (SMILES) | inhibition in vivo at 0.03 mg/kg (Cavia porcellus [12]) [%] | inhibition in vivo at 1 mg/kg (Cavia porcellus [13]) [%] |
| --- | --- | --- | --- | --- | --- | --- | --- | --- | --- | --- | --- | --- | --- |
| 1.8 | 400 | 0.7 | 25 | 1.9 |  |  |  |  |  |  | CC(C)NC(=O)N(c1ccc(S(C)(=O)=O)cc1)C(C)c1cccc(-c2cc(C(C)(C)S(C)(=O)=O)cc3cccnc23)c1 (configuration not stated) |  |  |
| 1.7 | 1000 | 1.2 | 10.6 | 2.3 |  |  |  |  |  |  | CC(C)(c1cc(-c2cccc(NC(=O)c3ccc(S(C)(=O)=O)cc3)c2)c2ncccc2c1)S(C)(=O)=O |  |  |
| 1.6 | 800 | 0.6 | 17 | 1.4 |  |  |  |  |  |  | CC(c1cccc(-c2cc(C(C)(C)S(C)(=O)=O)cc3cccnc23)c1)N(C(=O)C1CC1)c1ccc(S(C)(=O)=O)cc1 (configuration not stated) |  |  |
| 1.5 | 270 | 0.4 | 5.9 | 0.5 |  |  |  |  |  |  | CC(c1cccc(-c2cc(C(C)(C)S(C)(=O)=O)cc3cccnc23)c1)N(C(=O)c1ccc(C(C)(C)O)cc1)c1ccc(S(C)(=O)=O)cc1 (configuration not stated) |  |  |
| 1 | 1800 | 0.1 | 9.5 | 0.5 |  |  |  |  |  |  | CC(C)(C#N)c1cc(-c2cccc(CN(Cc3ccc(F)cc3)c3ccc(S(C)(=O)=O)cc3)c2)c2ncccc2c1 |  |  |
| 0.6 | 90 | 0.4 | 5.5 | 0.7 |  |  |  |  |  |  | CC(C)(c1cc(-c2cccc(C(=O)Nc3c(Cl)cncc3Cl)c2)c2ncccc2c1)S(C)(=O)=O |  |  |
| 0.6 | 50 | 0.3 | 6.4 | 0.8 |  |  |  |  |  |  | CC(C)NC(=O)N(Cc1cc(-c2cc(C(C)(C)S(C)(=O)=O)cc3cccnc23)ccc1F)c1ccc(S(C)(=O)=O)cc1 |  |  |
| 0.3 | 30 | 0.1 | 0.9 | 0.1 |  |  |  |  |  |  | Cc1cc(C(=O)N(Cc2cccc(-c3cc(C(C)(C)C#N)cc4cccnc34)c2)c2ccc(S(C)(=O)=O)cc2)no1 |  |  |
| 0.3 | 80 | 0.3 | 4.2 | 0.3 |  |  |  |  |  |  | CC(C)OC(=O)N(Cc1cccc(-c2cc(C(C)(C)C#N)cc3cccnc23)c1)c1ccc(S(C)(=O)=O)cc1 |  |  |
| 0.2 | 80 | 0.1 | 1 | 0.3 |  |  |  |  |  |  | CC(C)(C#N)c1cc(-c2cccc(CN(C(=O)c3ccccc3)c3ccc(S(C)(=O)=O)cc3)c2)c2ncccc2c1 |  |  |
| 0.1 | 100 | 0.1 | 1.7 | 0.1 |  |  |  |  |  |  | CC(C)NC(=O)N(Cc1cccc(-c2cc(C(C)(C)S(C)(=O)=O)cc3cccnc23)c1)c1ccc(S(C)(=O)=O)cc1 |  |  |
| 0.1 | 40 | 0.03 | 0.05 | 0.1 |  |  |  |  |  |  | CC(C)(C#N)c1cc(-c2cccc(CN(C(=O)Nc3ccccc3)c3ccc(S(C)(=O)=O)cc3)c2)c2ncccc2c1 |  |  |
| 0.1 | 140 | 0.1 | 1.7 | 0.1 |  |  |  |  |  |  | CC(C)NC(=O)N(Cc1cccc(-c2cc(C(C)(C)C#N)cc3cccnc23)c1)c1ccc(S(C)(=O)=O)cc1 |  |  |
